Test [1] relates to mice in which alcoholic functional disorders of a liver were developed. Kind of test: Serum GOT concentration 12 hours after ethanol administration in mice pre-administered amino acid compositions. Type of test: in vivo. Particulars: judged from GOT and GPT values 12 h after ethanol.
Method: In the present Examples, outbreak and healing of functional disorders of a liver were judged by employing GOT (Glutamic Oxaloacetic Transaminase), GPT (Glutamic Pyruvic Transaminase), total cholesterol and triglyceride which are indexes for functional disorders of the liver.
(§1) Measurements were conducted using a clinical diagnosis kit available from Wako Pure Chemical Industries, Ltd.
The following reagents were used for measurement of GOT.
The action of the substrate enzyme liquid to a specimen to be measured generates glutamic acid and oxalacetic acid from L-aspartic acid and α-keto glutaric acid, respectively, by means of GOT in the specimen. […]
The hydrogen peroxide thus produced quantitatively and oxidatively condenses the TOOS and 4-aminoantipyrine to generate violet pigment (refer to Formula 1) by the action of the co-existing peroxidase (POD).
The active value of the GOT in the specimen is measured by the violet absorbance. The ascorbic acid contained in the specimen is decomposed by the ascorbic acid oxidase contained in the substrate enzyme liquid, thereby affecting little influence on the measured value. […]
After a standard specimen having a known concentration prepared by using the standard liquid was preliminarily heated and the substrate buffer was added thereto, the absorbance of the standard specimen was measured and a calibration curve was prepared using the measured values. […]
For test [2] the test system is unchanged. The test can be described thus: Total cholesterol amount in the liver 12 hours after ethanol administration. Particulars: 12 hours following the ethanol administration; control = no administration. Type of test: in vivo.
Method: as §1
The following reagents were used for the measurement of the total cholesterol.
The action of the color generating agent to a specimen to be measured decomposes the cholesterols into the liberated cholesterols and fatty acids by the action of the cholesterol esterase. The cholesterols thus generated together with the liberated cholesterols already existing are oxidized to produce hydrogen peroxide by means of the action of the cholesterol oxidase. The hydrogen peroxide thus produced quantitatively and oxidatively condenses the phenols and 4-aminoantipyrine to generate red pigment (red quinone-based pigment, refer to Formula 3) by the action of the peroxidase (POD).
The concentration of the total cholesterol in the specimen was determined by measuring the red absorbance.
After 0.01 ml of the specimen was dissolved in isopropanol, 1.5ml of the color producing agent was added therein followed by heating at 37° C. for 10 minutes under sufficient agitation. The absorbance of the specimen at 505 nm was measured by using a blind specimen as reference by means of a spectrophotometer. […]

Data on two compounds can be found in patent US20040192751A1, “Amino acid composition for ameliorating liver failure” (priority 2001, published 2004).

As to `N[C@@H](Cc1ccc(O)cc1)C(=O)O` [0.25% Tyr, tyrosine], the “action for improving functional disorders of the liver using GOT and GPT as the indexes” value in test [1] is “next most effective”. The “total cholesterol in the liver, compared with control (FIG. 5)” value in test [2] is on record as “values lower than those of the control”.
On to `N[C@@H](Cc1c[nH]c2ccccc12)C(=O)O` [2% Trp, tryptophane], for which the “action for improving functional disorders of the liver using GOT and GPT as the indexes” value in test [1] is given as “next most effective”. Moreover, the “total cholesterol in the liver, compared with control (FIG. 5)” value in test [2] was “values lower than those of the control”.
